Data as given in publication PMC4215513, “Effect of the Pleiotropic Drug CNB-001 on Tissue Plasminogen Activator (tPA) Protease Activity in vitro: Support for Combination Therapy to Treat Acute Ischemic Stroke” (Journal of neurology & neurophysiology, 2014).
Where a name gives a salt, the structure may show the parent alone.

Assays:
[1] = target: T1, tissue plasminogen activator (tPA) (Homo sapiens, UniProt P00750); assay: chromogenic substrate protease assay with recombinant tPA (positive control inhibitor); format: biochemical
T1 construct: gene PLAT; Human recombinant tPA (Activase)
T1 sequence (P00750 36-562): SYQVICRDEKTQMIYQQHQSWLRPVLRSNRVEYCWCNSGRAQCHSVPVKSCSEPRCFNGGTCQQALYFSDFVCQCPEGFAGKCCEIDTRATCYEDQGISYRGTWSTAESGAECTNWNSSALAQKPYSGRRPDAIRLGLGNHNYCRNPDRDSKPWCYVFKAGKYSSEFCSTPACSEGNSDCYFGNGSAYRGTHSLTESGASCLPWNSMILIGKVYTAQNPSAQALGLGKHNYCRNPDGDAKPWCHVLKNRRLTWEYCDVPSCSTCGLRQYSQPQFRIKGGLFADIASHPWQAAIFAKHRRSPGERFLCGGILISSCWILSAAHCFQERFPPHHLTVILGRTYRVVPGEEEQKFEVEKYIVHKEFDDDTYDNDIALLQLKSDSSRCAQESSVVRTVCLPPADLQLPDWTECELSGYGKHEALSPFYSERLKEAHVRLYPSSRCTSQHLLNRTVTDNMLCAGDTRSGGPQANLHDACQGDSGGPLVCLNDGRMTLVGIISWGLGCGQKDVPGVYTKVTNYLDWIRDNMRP

[2] = target: T1, tissue plasminogen activator (tPA); assay: chromogenic substrate protease assay with recombinant tPA; […] inhibition at […]; IC50 extrapolated ([…] min […], […] min […]); format: biochemical

| inhibition at 5 µM [1] [%] | Structure (SMILES) | IC50 [2] [µM] |
| --- | --- | --- |
| 83.4 | N=C(N)c1ccc(C=C2CCCCC(=Cc3ccc(C(=N)N)cc3)C2=O)cc1 [tPA-STOP, 2,7-Bis-(4-amidinobenzylidene)-cycloheptan-1-one dihydrochloride] | – |
| – | COc1cc(/C=C/c2cc(/C=C/c3ccc(O)c(OC)c3)n(-c3ccccc3)n2)ccc1O [CNB-001] | ~65.2 |
